Measurements as given in ChEMBL document CHEMBL4346757, “Synthesis and biological evaluation of 7-methoxy-1-(3,4,5-trimethoxyphenyl)-4,5-dihydro-2H-benzo[e]indazoles as new colchicine site inhibitors” (Bioorg Med Chem Lett, 2019).

Key:
Type in all cases: functional
KM12 [1] = experiment: Growth inhibition of human KM12 cells assessed as cell growth at 100 uM after 48 hrs by SRB assay relative to control; conditions: KM12, 48 h, read-out: Activity
MCF7 = experiment: Growth inhibition of human MCF7 cells assessed as cell growth at 0.1 uM after 48 hrs by SRB assay relative to control; conditions: MCF7, 48 h, read-out: Activity
U-251 [2] = experiment: Growth inhibition of human U251 cells assessed as cell growth at 1 uM after 48 hrs by SRB assay relative to control; conditions: U-251, 48 h, read-out: Activity
NCI-H460 = experiment: Growth inhibition of human NCI-H460 cells assessed as cell growth at 0.1 uM after 48 hrs by SRB assay relative to control; conditions: NCI-H460, 48 h, read-out: Activity
T47D = experiment: Growth inhibition of human T47D cells assessed as cell growth at 0.01 uM after 48 hrs by SRB assay relative to control; conditions: read-out: Activity
NCI-H522 [3] = experiment: Growth inhibition of human NCI-H522 cells assessed as cell growth at 100 uM after 48 hrs by SRB assay relative to control; conditions: NCI-H522, 48 h, read-out: Activity
SW-620 = experiment: Growth inhibition of human SW620 cells assessed as cell growth at 0.1 uM after 48 hrs by SRB assay relative to control; conditions: SW-620, 48 h, read-out: Activity
K562 = experiment: Growth inhibition of human K562 cells assessed as cell growth at 10 uM after 48 hrs by SRB assay relative to control; conditions: K562, 48 h, read-out: Activity
SK-OV-3 = experiment: Growth inhibition of human SKOV3 cells assessed as cell growth at 0.1 uM after 48 hrs by SRB assay relative to control; conditions: SK-OV-3, 48 h, read-out: Activity
NCI-H23 = experiment: Cytotoxicity against human NCI-H23 cells assessed as growth inhibition after 48 hrs by SRB assay; conditions: NCI-H23, 48 h
A498 [4] = experiment: Growth inhibition of human A498 cells assessed as cell growth at 10 uM after 48 hrs by SRB assay relative to control; conditions: A498, 48 h, read-out: Activity
UACC-62 = experiment: Growth inhibition of human UACC62 cells assessed as cell growth at 0.01 uM after 48 hrs by SRB assay relative to control; conditions: UACC-62, 48 h, read-out: Activity
LOX IMVI [5] = experiment: Cytotoxicity against human LOXIMVI cells assessed as growth inhibition after 48 hrs by SRB assay
A498 [6] = experiment: Cytotoxicity against human A498 cells assessed as growth inhibition after 48 hrs by SRB assay; conditions: A498, 48 h
SN12C [7] = experiment: Growth inhibition of human SN12C cells assessed as cell growth at 0.01 uM after 48 hrs by SRB assay relative to control; conditions: read-out: Activity
LOX IMVI [8] = experiment: Growth inhibition of human LOXIMVI cells assessed as cell growth at 0.1 uM after 48 hrs by SRB assay relative to control; conditions: read-out: Activity
RXF 393 [9] = experiment: Growth inhibition of human RXF393 cells assessed as cell growth at 100 uM after 48 hrs by SRB assay relative to control; conditions: RXF 393, 48 h, read-out: Activity
KM12 [10] = experiment: Cytotoxicity against human KM12 cells assessed as growth inhibition after 48 hrs by SRB assay; conditions: KM12, 48 h
PC-3 = experiment: Growth inhibition of human PC3 cells assessed as cell growth at 10 uM after 48 hrs by SRB assay relative to control; conditions: PC-3, 48 h, read-out: Activity
EKVX = experiment: Growth inhibition of human EKVX cells assessed as cell growth at 100 uM after 48 hrs by SRB assay relative to control; conditions: read-out: Activity
NCI-H522 [11] = experiment: Cytotoxicity against human NCI-H522 cells assessed as growth inhibition after 48 hrs by SRB assay; conditions: NCI-H522, 48 h
RXF 393 [12] = experiment: Growth inhibition of human RXF393 cells assessed as cell growth at 0.1 uM after 48 hrs by SRB assay relative to control; conditions: RXF 393, 48 h, read-out: Activity
SF-268 = experiment: Growth inhibition of human SF268 cells assessed as cell growth at 0.1 uM after 48 hrs by SRB assay relative to control; conditions: SF-268, 48 h, read-out: Activity
OVCAR-5 = experiment: Growth inhibition of human OVCAR5 cells assessed as cell growth at 0.01 uM after 48 hrs by SRB assay relative to control; conditions: OVCAR-5, 48 h, read-out: Activity
U-251 [13] = experiment: Growth inhibition of human U251 cells assessed as cell growth at 0.01 uM after 48 hrs by SRB assay relative to control; conditions: U-251, 48 h, read-out: Activity
SN12C [14] = experiment: Growth inhibition of human SN12C cells assessed as cell growth at 1 uM after 48 hrs by SRB assay relative to control; conditions: read-out: Activity
UO-31 = experiment: Growth inhibition of human UO31 cells assessed as cell growth at 0.01 uM after 48 hrs by SRB assay relative to control; conditions: UO-31, 48 h, read-out: Activity
A498 [15] = experiment: Growth inhibition of human A498 cells assessed as cell growth at 0.1 uM after 48 hrs by SRB assay relative to control; conditions: A498, 48 h, read-out: Activity
OVCAR-3 = experiment: Growth inhibition of human OVCAR3 cells assessed as cell growth at 0.01 uM after 48 hrs by SRB assay relative to control; conditions: OVCAR-3, 48 h, read-out: Activity
HOP-62 = experiment: Growth inhibition of human HOP62 cells assessed as cell growth at 100 uM after 48 hrs by SRB assay relative to control; conditions: HOP-62, 48 h, read-out: Activity
M14 = experiment: Cytotoxicity against human M14 cells assessed as growth inhibition after 48 hrs by SRB assay; conditions: M14, 48 h
[16] = read-out: LC50 (the source's name)
[17] = read-out: pLC50 (the source's name) (converted)

SMILES: COc1ccc2c(c1)CCc1n[nH]c(-c3cc(OC)c(OC)c(OC)c3)c1-2
- growth at 100 µM (KM12 [1]): -78%
- growth at 0.1 µM (MCF7): 14%
- growth at 1 µM (U-251 [2]): 8%
- growth at 0.1 µM (NCI-H460): 2%
- growth at 0.01 µM (T47D): 59%
- growth at 100 µM (NCI-H522 [3]): -66%
- growth at 0.1 µM (SW-620): 18%
- growth at 10 µM (K562): 17%
- growth at 0.1 µM (SK-OV-3): -2%
- GI50 (NCI-H23; read-out: GI50): < 0.01 µM
- CC50 (NCI-H23; [16]): > 100 µM
- TGI (NCI-H23; read-out: TGI): 3.53 µM
- GI50 (NCI-H23; read-out: pGI50 (converted)): < 0.01 µM
- CC50 (NCI-H23; [17]): > 100 µM
- TGI (NCI-H23; read-out: pTGI (converted)): 3.55 µM
- growth at 10 µM (A498 [4]): -17%
- growth at 0.01 µM (UACC-62): 23%
- GI50 (LOX IMVI [5]; read-out: GI50): < 0.01 µM
- CC50 (LOX IMVI [5]; [16]): 38.3 µM
- TGI (LOX IMVI [5]; read-out: TGI): 11.8 µM
- GI50 (LOX IMVI [5]; read-out: pGI50 (converted)): < 0.01 µM
- CC50 (LOX IMVI [5]; [17]): 38 µM
- TGI (LOX IMVI [5]; read-out: pTGI (converted)): 11.7 µM
- GI50 (A498 [6]; read-out: GI50): < 0.01 µM
- CC50 (A498 [6]; [16]): 55.9 µM
- TGI (A498 [6]; read-out: TGI): < 0.01 µM
- GI50 (A498 [6]; read-out: pGI50 (converted)): < 0.01 µM
- CC50 (A498 [6]; [17]): 56.2 µM
- TGI (A498 [6]; read-out: pTGI): < 0.01 µM
- growth at 0.01 µM (SN12C [7]): 39%
- growth at 0.1 µM (LOX IMVI [8]): 16%
- growth at 100 µM (RXF 393 [9]): -68%
- GI50 (KM12 [10]; read-out: GI50): < 0.01 µM
- CC50 (KM12 [10]; [16]): 46.5 µM
- TGI (KM12 [10]; read-out: TGI): 11.8 µM
- GI50 (KM12 [10]; read-out: pGI50 (converted)): < 0.01 µM
- CC50 (KM12 [10]; [17]): 46.8 µM
- TGI (KM12 [10]; read-out: pTGI (converted)): 11.7 µM
- growth at 10 µM (PC-3): 14%
- growth at 100 µM (EKVX): -25%
- GI50 (NCI-H522 [11]; read-out: GI50): < 0.01 µM
- CC50 (NCI-H522 [11]; [16]): 46.9 µM
- TGI (NCI-H522 [11]; read-out: TGI): < 0.01 µM
- GI50 (NCI-H522 [11]; read-out: pGI50 (converted)): < 0.01 µM
- CC50 (NCI-H522 [11]; [17]): 46.8 µM
- TGI (NCI-H522 [11]; read-out: pTGI): < 0.01 µM
- growth at 0.1 µM (RXF 393 [12]): -2%
- growth at 0.1 µM (SF-268): 30%
- growth at 0.01 µM (OVCAR-5): 56%
- growth at 0.01 µM (U-251 [13]): 14%
- growth at 1 µM (SN12C [14]): 36%
- growth at 0.01 µM (UO-31): 42%
- growth at 0.1 µM (A498 [15]): -15%
- growth at 0.01 µM (OVCAR-3): 14%
- growth at 100 µM (HOP-62): -76%
- GI50 (M14; read-out: GI50): < 0.01 µM
- LC50 (M14; read-out: LC50): 58.7 µM
- TGI (M14; read-out: TGI): 10.9 µM
- GI50 (M14; read-out: pGI50 (converted)): < 0.01 µM
- LC50 (M14; read-out: pLC50 (converted)): 58.9 µM
- TGI (M14; read-out: pTGI (converted)): 11 µM
